Assay results published in the supplement of paper PMC10307832.

Columns and labels:
Assay in all cases: relative viability (nuclei count vs DMSO), 5 days (fraction); higher = more cells survive
[1] = compound: COC1=C(C=C(C=C1)C2=CC3=NC=CN3C(=N2)NC4=C(C=CC=N4)C(=O)N)OC [BAY61-3606] + Nc1ncn([C@H]2C[C@H](O)[C@@H](CO)O2)c(=O)n1 [Decitabine] (partner 2 µM)
Summary of the method: (§1)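 Medians of duplicate plates are given as relative viability. That measure is the nuclei count in treated wells divided by the count in vehicle wells. Counts were taken on 4× images of lung cancer cell lines in 1536-well plates, 5 days after pin-tool dosing the day after seeding with one drug alone or a fixed anchor-drug dose plus five library-drug doses (not always all listed) in √10 steps.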

[2] = compound: COC1=C(C=C(C=C1)C2=CC3=NC=CN3C(=N2)NC4=C(C=CC=N4)C(=O)N)OC [BAY61-3606] + N=C(N)NC(=N)NCCc1ccccc1 [Phenformin] (partner 250 µM)
Summary of the method: as §1

[3] = compound: COC1=C(C=C(C=C1)C2=CC3=NC=CN3C(=N2)NC4=C(C=CC=N4)C(=O)N)OC [BAY61-3606] + CCNC(=O)c1noc(-c2cc(C(C)C)c(O)cc2O)c1-c1ccc(CN2CCOCC2)cc1 [Luminespib] (partner 0.01 µM)
Summary of the method: as §1

[4] = compound: COc1cccc2c1C(=O)c1c(O)c3c(c(O)c1C2=O)C[C@@](O)(C(=O)CO)C[C@@H]3O[C@H]1C[C@H](N)[C@H](O)[C@H](C)O1 [Doxorubicin] + C[C@]1(O)C[C@@H](c2nc(-c3ccc4ccc(-c5ccccc5)nc4c3)c3c(N)nccn32)C1 [Linsitinib] (partner 1 µM)
Summary of the method: as §1

| Cell Line | relative viability ([1]; first compound 0.02 µM) | relative viability ([1]; first compound 0.06325 µM) | relative viability ([1]; first compound 0.2 µM) | relative viability ([1]; first compound 2 µM) | relative viability ([2]; first compound 0.02 µM) | relative viability ([2]; first compound 0.06325 µM) | relative viability ([2]; first compound 0.6325 µM) | relative viability ([2]; first compound 2 µM) | relative viability ([1]; first compound 0.6325 µM) | relative viability ([3]; first compound 0.02 µM) | relative viability ([3]; first compound 0.06325 µM) | relative viability ([3]; first compound 0.6325 µM) | relative viability ([3]; first compound 2 µM) | relative viability ([4]; first compound 0.003162 µM) | relative viability ([4]; first compound 0.01 µM) | relative viability ([4]; first compound 0.03162 µM) | relative viability ([4]; first compound 0.1 µM) | relative viability ([2]; first compound 0.2 µM) | relative viability ([3]; first compound 0.2 µM) | relative viability ([4]; first compound 0.001 µM) |
| --- | --- | --- | --- | --- | --- | --- | --- | --- | --- | --- | --- | --- | --- | --- | --- | --- | --- | --- | --- | --- |
| NCI-H1648 | 0.423 | 0.511 | 0.504 | 0.445 |  |  |  |  |  |  |  |  |  |  |  |  |  |  |  |  |
| NCI-H1793 | 0.504 | 0.501 | 0.558 | 0.651 | 0.363 | 0.216 | 0.41 | 0.271 | 0.539 | 0.177 | 0.159 | 0.163 | 0.182 | 0.813 | 0.848 | 0.579 | 0.911 |  |  |  |
| SK-LU-1 | 0.715 | 0.725 | 0.575 | 0.428 | 0.563 | 0.451 | 0.506 | 0.284 | 0.621 | 0.182 | 0.224 | 0.2 | 0.173 | 1.23 | 0.891 | 0.435 | 0.43 | 0.569 | 0.188 | 1.1 |
| HCC-44 | 0.939 | 0.926 | 0.931 | 0.957 | 0.189 | 0.134 | 0.251 | 0.182 | 0.911 | 1.1 |  | 1.24 | 0.997 | 0.667 | 0.621 | 0.69 | 0.753 | 0.141 | 1.17 | 0.686 |
| 201T | 0.87 | 0.923 | 0.864 | 0.834 | 0.461 | 0.425 | 0.511 | 0.444 | 0.896 | 1.11 | 1.03 | 1.16 | 1.05 | 0.979 | 0.983 | 1.06 | 1.01 | 0.449 | 1.04 | 1 |
| Calu-6 |  |  |  |  |  |  |  |  |  |  |  |  |  | 0.972 | 0.814 | 0.627 | 0.702 |  |  | 0.944 |
| HCC-366 | 0.379 | 0.433 | 0.396 | 0.296 | 0.642 | 0.512 | 0.565 | 0.504 | 0.354 |  |  |  |  | 0.392 | 0.706 | 0.52 | 0.512 | 0.613 |  |  |
| NCI-H2228 |  |  |  |  | 0.37 | 0.294 | 0.276 | 0.26 |  | 0.13 | 0.175 | 0.199 | 0.177 | 0.615 | 0.634 | 0.178 | 0.311 | 0.368 | 0.125 | 0.825 |
| NCI-H2170 | 0.449 | 0.529 | 0.485 | 0.429 | 0.399 | 0.356 | 0.401 | 0.385 | 0.462 | 0.796 | 0.717 | 0.852 | 0.506 |  |  |  |  | 0.434 | 0.761 |  |
| HCC-78 | 0.643 | 0.676 | 0.798 | 0.857 | 0.769 | 0.719 | 0.848 | 0.915 | 0.722 |  |  |  |  | 0.454 | 0.493 | 0.491 | 0.47 | 0.688 |  | 0.539 |
| NCI-H1299 |  |  |  |  |  |  |  |  |  |  |  |  |  | 0.942 | 1.03 | 0.943 | 0.999 |  |  | 0.949 |
| IA-LM |  |  |  |  |  |  |  |  |  |  |  |  |  | 0.706 | 0.575 | 0.573 | 0.74 |  |  | 0.519 |
| ChaGo-K-1 | 0.53 | 0.543 | 0.479 | 0.531 | 0.513 | 0.451 | 0.462 | 0.52 | 0.51 | 0.611 | 0.606 | 0.554 | 0.436 |  |  |  |  | 0.515 | 0.587 |  |
| NCI-H1563 |  |  |  |  | 0.631 | 0.59 | 0.62 | 0.61 |  | 0.528 | 0.558 | 0.54 | 0.502 | 0.935 | 0.898 | 0.634 | 0.587 | 0.604 | 0.531 | 1.07 |
| NCI-H1703 |  |  |  |  |  |  |  |  |  |  |  |  |  | 0.676 | 0.695 | 0.64 | 0.474 |  |  | 0.481 |
| SW 900 | 0.452 |  |  | 0.442 | 0.736 | 0.456 | 0.594 | 0.473 | 0.396 | 0.172 | 0.188 | 0.219 | 0.162 |  |  |  |  | 0.489 | 0.179 |  |
| NCI-H1650 | 0.449 | 0.444 | 0.432 | 0.387 | 0.506 | 0.351 | 0.378 | 0.224 | 0.424 | 0.182 | 0.184 | 0.203 | 0.208 |  |  |  |  | 0.48 | 0.191 |  |
| A549 | 0.222 | 0.261 | 0.224 | 0.198 | 0.17 | 0.0908 | 0.212 | 0.166 | 0.237 |  |  |  |  | 0.609 | 0.502 | 0.52 | 0.646 | 0.0972 |  |  |
| NCI-H2342 | 0.81 | 0.853 | 0.78 | 0.831 | 0.629 | 0.65 | 0.586 | 0.662 | 0.78 | 0.895 | 0.719 | 0.751 | 0.797 |  |  |  |  | 0.535 | 0.711 |  |
| NCI-H1623 |  |  |  |  | 0.58 | 0.522 | 0.58 | 0.588 |  | 0.604 | 0.439 | 0.607 | 0.52 |  |  |  |  | 0.588 | 0.422 |  |
| NCI-H522 | 0.68 | 0.635 | 0.732 | 0.517 | 0.634 | 0.624 | 0.749 | 0.557 | 0.742 | 1.05 | 1.13 | 1.12 | 0.89 |  |  |  |  | 0.674 | 1.16 |  |
| CAL-12T |  |  |  |  | 0.559 | 0.592 | 0.557 | 0.266 |  | 0.49 | 0.439 | 0.789 | 0.187 | 0.858 | 0.762 | 0.432 | 0.48 | 0.502 | 0.209 | 0.783 |
| EBC-1 |  |  |  |  |  |  |  |  |  |  |  |  |  | 0.839 | 0.983 | 0.722 | 0.985 |  |  | 0.826 |
